For orientation: Kd means the concentration at which binding is half-saturated.

Experimental findings from PubChem BioAssay AID608 (Sanford-Burnham Center for Chemical Genomics, 2007) are described below.

The structures appear in SMILES notation. Calls of active or inactive are those of the source. How the calls were made is not given here.

In this assay the target is Peptidyl-prolyl cis-trans isomerase FKBP1A (Homo sapiens) (UniProt P62942). Kind of assay: FKBP12 binders, biophysical, NMR detection (AID 608). The conditions noted are these: NMR binding, purified FKBP12.
Sequence of Peptidyl-prolyl cis-trans isomerase FKBP1A (Homo sapiens) (P62942 whole entry, looked up): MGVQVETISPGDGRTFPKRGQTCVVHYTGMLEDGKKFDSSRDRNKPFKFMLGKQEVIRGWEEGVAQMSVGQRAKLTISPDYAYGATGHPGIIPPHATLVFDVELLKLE
Consider `O=c1c2ccccc2oc2ccccc12`, for which the Kd was > 4 mM (inactive).
Under `O=C(O)C1CCN(c2ccc(C(F)(F)F)cn2)CC1` stands > 4 mM (inactive).
Under `O=C1N=c2ccccc2=C1c1[nH]c(=S)[nH]c1O` stands > 4 mM (inactive); under `CNS(=O)(=O)c1cccs1`, > 4 mM (inactive); under `CCOc1cc(S(=O)(=O)N2CCOCC2)ccc1F`, > 4 mM (inactive).
The result for `Nc1oncc1-c1ccccn1` reads > 4 mM (inactive).
For `COc1ccc(-c2coc3cc(O)ccc3c2=O)cc1`, the Kd is > 4 mM (inactive).
Under `O=C(O)CS(=O)(=O)c1ccccc1[N+](=O)[O-]` stands > 4 mM (inactive); under `c1coc(CNc2nc(-c3ccncc3)cs2)c1`, > 4 mM (inactive); under `OC[C@@H]1CCCN2CCCC[C@H]12`, > 4 mM (inactive).
Under `OCc1ccc2c(c1)OCO2` stands > 4 mM (inactive); under `Cc1nc2ccc(C(=O)O)cc2[nH]1`, > 4 mM (inactive).
Under `Nc1cc(F)ccc1-n1ccnc1` stands > 4 mM (inactive); under `CCOc1ccc(NS(=O)(=O)N2CCCCC2)cc1`, “inactive”; under `CC(=O)Nc1cc(N2C(=O)C=CC2=O)ccc1Cl`, > 4 mM (inactive).
Consider `CCc1cccc(C)c1NC(=O)c1cc(C)oc1C`, for which the Kd is > 4 mM (inactive).
For the compound `OCc1ccccc1N1CCOCC1`, the Kd was > 4 mM (inactive).
The result for `CSc1n[nH]c(NCc2ccccc2)n1` reads > 4 mM (inactive).
The result for `CC(C)c1ccccc1OCC(=O)N1CCOCC1` reads > 4 mM (inactive); that for `CN(C)C(=O)CSc1cccc2cccnc12`, > 4 mM (inactive); that for `Cc1cc(=O)c2c(O)cc(O)c(C)c2o1`, > 4 mM (inactive).
The result for `Oc1ccc(C(=S)N2CCOCC2)cc1` reads > 4 mM (inactive); that for `Nc1ccncc1`, > 4 mM (inactive).
`O=c1[nH]nc(Cc2ccncc2)c2ccccc12`: the Kd is > 4 mM (inactive).
For `OCc1ccc2c(c1)OCCCO2`, the Kd was > 4 mM (inactive).
The result for `CN1CCC(NC(=O)Cc2c(F)cccc2Cl)CC1` reads > 4 mM (inactive); that for `NC(=O)c1ccsc1N`, > 4 mM (inactive).
Under `Cc1nc(-c2ccc(C(=O)O)s2)cs1` stands > 4 mM (inactive); under `Cc1[nH]c2ccccc2c1C=Nn1cncn1`, > 4 mM (inactive); under `O=C(O)c1ccc(-c2cccs2)cc1`, > 4 mM (inactive).
As for `CCCCCCCCCCCC[C@H](C(=O)O)[C@@H](C)C(=O)O`, the Kd is > 4 mM (inactive).
The result for `CC(=O)Nc1ccc(NC(=O)C2CC2)cc1` reads > 4 mM (inactive); that for `NC(=O)CCn1c(=O)oc2ccccc21`, > 4 mM (inactive).
Under `Cc1nn2c3ccccc3nc2n(Cc2ccccc2)c1=O` stands > 4 mM (inactive); under `O=C(O)c1cncc(-c2ccccc2)c1`, > 4 mM (inactive); under `COc1cc2c(cc1O)[C@@H](Cc1ccc(O)cc1)[N+](C)(C)CC2`, > 4 mM (inactive).
Under `CN1C(=O)/C(=C/c2ccccc2O)NC1=S` stands > 4 mM (inactive); under `CC1(C)CC[C@]2(C)CC[C@]3(C)C(=CCC4[C@@]5(C)CC[C@H](O)C(C)(C)C5CC[C@]43C)C2C1` (stereo partly specified), > 4 mM (inactive); under `Nc1ccccc1C(=O)N1CCOCC1`, > 4 mM (inactive).
On to `O=C1CCCN1C(=O)c1ccc(F)cc1`, for which the Kd is > 4 mM (inactive).
Under `O=C(CC1NCCNC1=O)Nc1ccccc1` (stereo unspecified) stands > 4 mM (inactive).
The result for `CC(C)=CCc1c2c(c(O)c3c(=O)c(O)c(-c4ccccc4)oc13)C=CC(C)(C)O2` reads > 4 mM (inactive); that for `Nc1nc2n(c1C(=O)c1ccccc1)CCC2`, > 4 mM (inactive); that for `O=C(O)c1ccc(-n2ccnc2)cc1`, > 4 mM (inactive).
The result for `Oc1ccc2nonc2c1` reads > 4 mM (inactive).
Regarding `CC(=O)N1CCc2cc(NC(=O)c3ccc(C)cc3)ccc21`, the Kd was > 4 mM (inactive).
Under `O=C1NC(=O)/C(=C/c2ccc(O)cc2)N1` stands > 4 mM (inactive).
The result for `COC(=O)c1cncc(C(=O)OC)c1` reads > 4 mM (inactive); that for `Cc1nnc(SCc2ccc(F)cc2)s1`, > 4 mM (inactive); that for `CN1C(=O)CC[C@H]1c1cccnc1`, > 4 mM (inactive).
`O=C(Cc1ccccc1)Nc1c[nH]c(=O)[nH]c1=O`: the Kd is > 4 mM (inactive).
On to `O=C(c1ccc(F)cc1)N1CCOCC1`, for which the Kd is > 4 mM (inactive).
Under `Cc1ccc(NC(=O)N2CCC(C(N)=O)CC2)cc1` stands > 4 mM (inactive); under `Cc1cccc(N2C(=O)CC(=O)NC2=O)c1`, > 4 mM (inactive); under `O=[N+]([O-])c1c[n+]([O-])n(-c2ccccc2)n1`, > 4 mM (inactive).
The result for `Cc1nc2ccc(C(=O)O)cc2nc1C` reads > 4 mM (inactive); that for `CN(C(=O)c1cc2cccnc2n(C)c1=O)c1ccccc1`, > 4 mM (inactive); that for `CN(C)C(=O)Oc1cccc(-c2nnco2)c1`, > 4 mM (inactive).
Under `O=S(=O)(NCc1ccco1)N1CCOCC1` stands > 4 mM (inactive).
For the compound `Cn1c(=O)cc(O)c2ccccc21`, the Kd is > 4 mM (inactive).
On to `Nc1n[nH]c(=S)n1-c1ccccc1`, for which the Kd is > 4 mM (inactive).
In the case of `O=C(O)CCC(=O)Nc1ccccn1`, the Kd is > 4 mM (inactive).
Under `CN1CC(=O)N=C1N` stands > 4 mM (inactive).
The result for `NCc1ccc(-c2ccccn2)s1` reads > 4 mM (inactive); that for `O=c1[nH]cc(CN2CCOCC2)c(=O)[nH]1`, > 4 mM (inactive); that for `NC(=O)CSc1ncnc2ccccc12`, > 4 mM (inactive).
The result for `CN1C(=O)Cc2cc(S(N)(=O)=O)ccc21` reads > 4 mM (inactive); that for `CC(C)NC(=O)Cc1c(O)c2ccccc2[nH]c1=O`, > 4 mM (inactive); that for `COC(=O)c1ccccc1N(C)S(C)(=O)=O`, > 4 mM (inactive).
Turning to `CC(C)NC1CS(=O)(=O)CC1O` (stereo unspecified), the Kd was > 4 mM (inactive).
Under `NCc1csc2ccccc12` stands > 4 mM (inactive); under `Cc1nn(C)c2sc(C(=O)O)cc12`, > 4 mM (inactive); under `O=C1NC(=O)C2C3C=CC(O3)C12` (stereo unspecified), > 4 mM (inactive).
The result for `Cc1cc(C)n2nc(NCc3ccccc3)nc2n1` reads > 4 mM (inactive); that for `NC(=O)CSc1nc2[nH]ncc2c(=O)[nH]1`, > 4 mM (inactive).
Under `CCC(C)C(NC)C(=O)O` (stereo unspecified) stands > 4 mM (inactive); under `Cc1nc(-c2ccc(NS(C)(=O)=O)cc2)cs1`, > 4 mM (inactive).
Turning to `c1cncc(Nc2nc(-c3ccncc3)cs2)c1`, the Kd was > 4 mM (inactive).
As to `CCOC(=O)c1c(-c2ccncc2)csc1N`, the Kd was > 4 mM (inactive).
The result for `O=C(NN=C1CCCC1)c1ccncc1` reads > 4 mM (inactive).
As for `CC(=O)Nc1ccc(S(=O)(=O)NC(N)=O)cc1`, the Kd was > 4 mM (inactive).
Under `COCc1cc(=O)oc2cc(O)c(Cl)cc12` stands > 4 mM (inactive); under `O=C(O)c1ccc(CN2CCOCC2)cc1`, > 4 mM (inactive).
Under `COC(=O)c1noc(-c2ccc(OC)cc2)n1` stands > 4 mM (inactive).
The result for `Cc1ccc(NC(=O)CC2NCCNC2=O)c(C)c1` (stereo unspecified) reads > 4 mM (inactive).
`O=C(Nn1cnnc1)c1ccccc1Cl`: the Kd is > 4 mM (inactive).
Turning to `COc1ccc2[nH]c(O)c(NC(C)=O)c2c1`, the Kd was > 4 mM (inactive).
Under `CCOC12NC(=O)CC(=O)N1C(c1ccccc1)=CS2` (stereo unspecified) stands > 4 mM (inactive).
The result for `O=C1C2CC=CCC2C(=O)N1c1cccc(O)c1` (stereo unspecified) reads > 4 mM (inactive); that for `Cc1cc(C)n(-c2nncn2N)n1`, > 4 mM (inactive); that for `CC(=O)NCC1(c2ccccc2)CCOCC1`, > 4 mM (inactive).
Under `CC(C)=NNC(=O)c1ccccc1` stands > 4 mM (inactive); under `Nc1ccc2sccc2c1`, > 4 mM (inactive); under `OC1CSc2ncnn2C1` (stereo unspecified), > 4 mM (inactive).
Take `Nc1ccc(Cc2ccncc2)cc1`: the Kd was > 4 mM (inactive).
The result for `Cc1[nH]c2ccccc2c1C(=O)CSc1ncn[nH]1` reads > 4 mM (inactive).
Regarding `CC1SC(=NC(=O)c2ccncc2)NC1=O` (stereo unspecified), the Kd was > 4 mM (inactive).
In the case of `CN1CCN(C(=O)c2ccccc2C(=O)O)CC1`, the Kd is > 4 mM (inactive).
The result for `OCc1nc2ccccc2s1` reads > 4 mM (inactive); that for `COCC(=O)Nc1cccc(Br)c1`, > 4 mM (inactive); that for `COc1ccc2c(c1)OC/C(=C/c1ccc(O)c(O)c1)C2=O`, > 4 mM (inactive).
Take `c1ccc2c(c1)[nH]c1cnccc12`: the Kd was > 4 mM (inactive).
Under `CSc1nc2nc(C)cc(=O)n2[nH]1` stands > 4 mM (inactive).
Under `CCOC(=O)CNC(=O)CSc1nnc(C)c(=O)[nH]1` stands > 4 mM (inactive); under `O=C(Nc1nnc(-c2cccnc2)o1)c1ccccc1F`, > 4 mM (inactive); under `O=C1CC(C(=O)O)c2ccccc21` (stereo unspecified), > 4 mM (inactive).
The result for `O=C(NCc1ccc2c(c1)OCO2)c1cccs1` reads > 4 mM (inactive).
Take `Cc1ccc(C(=O)n2cnnc2N)cc1C`: the Kd is > 4 mM (inactive).
Under `O=C(O)c1cccc(N2C(=O)C3CC=CCC3C2=O)c1` (stereo unspecified) stands > 4 mM (inactive).
Under `COc1ccc(-c2c(O)c3c(OC)c4c(cc3oc2=O)OC(C)(C)CC4)cc1` stands > 4 mM (inactive); under `CCn1c(C)c(C(C)=O)c(N2CCN(C)CC2)nc1=S`, > 4 mM (inactive).
